# Source: US8921406B2, “5-ring heteroaromatic compounds and their use as binding partners for 5-HT5 receptors” (AbbVie Deutschland GmbH & Co. KG, priority 2005, dated 2014)
# Counter-ions that a name gives are not always drawn.
# Molecular target: T1, h5-HT5A receptor (Homo sapiens, UniProt P47898)
# T1 construct: expressed in transfected cells
# Assay: h5-HT5A-[3H]5-CT binding assay
# Details: membranes of HEK293 cells expressing h5-HT5A; 2.5 nM [3H]5-CT; read-out: Binding affinity 5-HT5A (Ki)
# Procedure: 1. h5-HT5A-[^3H]5-CT Binding Assay
# Membranes of HEK293 cells which permanently express the h5-HT5A receptor gene were incubated in 100 mM tris-HCl buffer (pH 7.7) containing 1 mM EDTA, in the presence of 2.5 nM [^3H]5-CT (total volume 600 μL). The total binding is defined as the binding that is observed when the membranes are incubated in the presence of only the radioligand. The inhibition induced by the compound is determined by incubation of cell membranes in the presence of the radioligand and various concentrations of the compound of interest. Nonspecific binding is defined as the [^3H]5-CT binding obtained by incubation of the membranes, the same as for the total binding, but in the presence of 10 μM methiothepine. Following incubation for 75 min at 30° C., the membrane suspension was filtered through a GF/B-Filter coated with 0.03% PEI, using a Skatron® harvesting system. The residual radioactivity in the filter was quantified by liquid scintillation counting.
# Various concentrations of the test substances were used in both assays, and the Ki or IC50 values were determined.
# T1 sequence (P47898 whole entry): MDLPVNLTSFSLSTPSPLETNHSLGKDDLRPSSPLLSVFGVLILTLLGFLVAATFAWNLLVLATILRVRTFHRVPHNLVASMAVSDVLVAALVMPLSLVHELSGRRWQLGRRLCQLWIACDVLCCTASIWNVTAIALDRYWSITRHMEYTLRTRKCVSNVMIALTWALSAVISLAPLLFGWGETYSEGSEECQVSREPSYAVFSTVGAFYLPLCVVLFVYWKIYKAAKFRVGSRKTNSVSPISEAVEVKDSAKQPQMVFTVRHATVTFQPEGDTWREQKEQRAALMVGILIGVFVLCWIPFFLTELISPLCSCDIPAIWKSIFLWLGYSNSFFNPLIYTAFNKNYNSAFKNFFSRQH
row,SMILES,Ki
1,"COc1ccccc1Cn1cc(-c2nccs2)nc1N [Example 49, 1-(2-Methoxybenzyl)-4-thiazole-2-yl-1H-imidazole-2-ylamine hydrochloride]",< 0.6 µM
2,"COc1ccccc1Cn1cc(-c2ccc(C#N)s2)nc1N [Example 50, 5-[2-Amino-1-(2-methoxybenzyl)-1H-imidazole-4-yl]thiophene-2-carbonitrile]",< 0.6 µM
3,"COc1ccccc1Cn1cc(-c2cccc(N)c2)nc1N [Example 51, 4-(3-Aminophenyl)-1-(2-methoxybenzyl)-1H-imidazole-2-ylamine]",< 0.6 µM
4,"COc1cccc(OC)c1Cn1cc(-c2cc(C)cs2)nc1N [Example 52, 1-(2,6-Dimethoxybenzyl)-4-(4-methylthiophene-2-yl)-1H-imidazole-2-ylamine]",< 0.6 µM
5,"COc1cc([N+](=O)[O-])ccc1Cn1cc(-c2ccc(C#N)cc2)nc1N [Example 54, 4-[2-Amino-1-(2-methoxy-4-nitrobenzyl)-1H-imidazole-4-yl]benzonitrile]",> 0.6 µM
6,"COc1ccccc1Cn1cc(-c2cccc(NS(=O)(=O)c3ccccc3)c2)nc1N [Example 56, N-{3-[2-Amino-1-(2-methoxybenzyl)-1H-imidazole-4-yl]phenyl}benzenesulfonamide]",< 0.6 µM
7,"COc1ccccc1Cn1cc(-c2cccc(NS(C)(=O)=O)c2)nc1N [Example 57, N-{3-[2-Amino-1-(2-methoxybenzyl)-1H-imidazole-4-yl]phenyl}methanesulfonamide]",< 0.6 µM
8,"COc1ccccc1Cn1cc(-c2cccnc2)nc1N [Example 61, 1-(2-Methoxybenzyl)-4-pyridine-3-yl-1H-imidazole-2-ylamine]",< 0.6 µM
9,"COc1ccc(-c2nc(Cc3ccccc3OC)c(N)[nH]2)cc1 [Example 62, 5-(2-Methoxybenzyl)-2-(4-methoxyphenyl)-3H-imidazole-4-ylamine hydrochloride]",> 0.6 µM
10,"COc1ccccc1Cn1cc(-c2cccc(NS(=O)(=O)C(C)C)c2)nc1N [Example 64, Propane-2-sulfonic acid {3-[2-amino-1-(2-methoxybenzyl)-1H-imidazole-4-yl]phenyl}amide]",< 0.6 µM

# The remaining lines, values ahead:
row,Ki,SMILES
1,< 0.6 µM,"COc1ccccc1Cn1cc(-c2ccc(OCc3ccccc3)cc2)nc1N [Example 48, 4-(4-Benzyloxyphenyl)-1-(2-methoxybenzyl)-1H-imidazole-2-ylamine]"
2,< 0.6 µM,"COc1ccccc1Cn1cc(-c2ccc(N)cc2)nc1N [Example 53, 4-(4-Aminophenyl)-1-(2-methoxybenzyl)-1H-imidazole-2-ylamine hydrochloride]"
3,< 0.6 µM,"COc1ccccc1Cn1cc(-c2cccc(NS(=O)(=O)c3ccc(C(C)C)cc3)c2)nc1N [Example 55, N-{3-[2-Amino-1-(2-methoxybenzyl)-1H-imidazole-4-yl]phenyl}-4-isopropylbenzenesulfonamide]"
4,< 0.6 µM,"COc1ccccc1Cn1cc(-c2cccc(NC(=O)c3ccccc3)c2)nc1N [Example 58, N-{3-[2-Amino-1-(2-methoxybenzyl)-1H-imidazole-4-yl]phenyl}benzamide]"
5,< 0.6 µM,"COc1ccccc1Cn1cc(-c2ccc(NS(=O)(=O)c3ccccc3)cc2)nc1N [Example 59, N-{4-[2-Amino-1-(2-methoxybenzyl)-1H-imidazole-4-yl]phenyl}benzenesulfonamide]"
6,< 0.6 µM,"COc1ccccc1Cn1cc(-c2cccc(NS(=O)(=O)c3cccs3)c2)nc1N [Example 60, Thiophene-2-sulfonic acid {3-[2-amino-1-(2-methoxybenzyl)-1H-imidazole-4-yl]phenyl}amide]"
7,< 0.6 µM,"COc1ccccc1Cn1cc(-c2cccc(NS(=O)(=O)c3ccc(-c4ccccc4)cc3)c2)nc1N [Example 63, Biphenyl-4-sulfonic acid {3-[2-amino-1-(2-methoxybenzyl)-1H-imidazole-4-yl]phenyl}amide]"
